Assay results as given in patent publication US8071627B2, “2-pyridinylethylcarboxamide derivatives and their use as fungicides” (Bayer SAS, priority 2003, dated 2011).

Key:
Botrytis cinerea = assay: In vivo test on Botrytis cinerea (cucumber grey mould), cucumber plants, preventive spray; settings: 330 ppm; comparison compounds of WO 01/11965
Procedure: (§1) The active ingredient tested is prepared by potter homogenisation in a concentrated suspension type formulation at 100 g/l. This suspension is then diluted with water to obtain the desired active material concentration.
Cucumber plants (Marketer variety) in starter cups, sown on a 50/50 peat soil-pozzolana substrate and grown at 18-20° C., are treated at the cotyledon Z11 stage by spraying with the aqueous suspension described above. Plants, used as controls, are treated with an aqueous solution not containing the active material.
After 24 hours, the plants are contaminated by depositing drops of an aqueous suspension of Botrytis cinerea spores (150,000 spores per ml) on upper surface of the leaves. The spores are collected from a 15-day-old culture and are suspended in a nutrient solution-composed of: • 20 g/L of gelatin • 50 g/L of cane sugar • 2 g/L of NH4NO3 • 1 g/L of KH2PO4
The contaminated cucumber plants are settled for 5/7 days in a climatic room at 15-11° C. (day/night) and at 80% relative humidity.
Grading is carried out 5/7 days after the contamination, in comparison with the control plants.

Alternaria brassicae = assay: In vivo test on Alternaria brassicae (leaf spot of crucifers), radish plants, preventive spray; settings: 330 ppm; comparison compounds of WO 01/11965
Procedure: as §1
Radish plants (Pernot variety) in starter cups, sown on a 50/50 peat soil-pozzolana substrate and grown at 18-20° C., are treated at the cotyledon stage by spraying with the aqueous suspension described above.
Plants, used as controls, are treated with an aqueous solution not containing the active material.
After 24 hours, the plants are contaminated by spraying them with an aqueous suspension of Alternaria brassicae spores (40,000 spores per cm^3). The spores are collected from a 12-13-day-old culture.
The contaminated radish plants are incubated for 6-7 days at about 18° C., under a humid atmosphere.
Grading is carried out 6 to 7 days after the contamination, in comparison with the control plants.

Peronospora brassicae = assay: Test on Peronospora brassicae, cabbage plants, preventive spray; assay type: in vivo; settings: 330 ppm; cabbage plants (Eminence variety); sprayed 24 hours before contamination; grading 5 days after contamination vs control plants
Procedure: as §1
Cabbage plants (Eminence variety) in starter cups, sown on a 50/50 peat soil-pozzolana substrate and grown at 18-20° C., are treated at the cotyledon stage by spraying with the aqueous suspension described above. Plants, used as controls, are treated with an aqueous solution not containing the active material.
After 24 hours, the plants are contaminated by spraying them with an aqueous suspension of Peronospora brassicae spores (50,000 spores per ml). The spores are collected from infected plant
The contaminated cabbage plants are incubated for 5 days at 20° C., under a humid atmosphere.
Grading is carried out 5 days after the contamination, in comparison with the control plants.

Peronospora parasitica = assay: Efficacy against Peronospora parasitica (comparison compound); assay type: in vivo; settings: 330 ppm; comparison compound of WO 01/11965

| SMILES | effectiveness on Botrytis cinerea (in words) (Botrytis cinerea) | effectiveness on Alternaria brassicae (in words) (Alternaria brassicae) | protection (good (at least 50%) to total) (Peronospora brassicae) | efficacy against Peronospora parasitica (in words) (Peronospora parasitica) |
| --- | --- | --- | --- | --- |
| CCNC(=O)C(Cc1ncc(C(F)(F)F)cc1Cl)NC(=O)c1ccc(Cl)cc1 (stereo not shown) [compound 306, N-{1-ethylcarbamoyl-2-[3-chloro-5-(trifluoromethyl)-2-pyridinyl]ethyl}-4-chlorobenzamide] | zero effectiveness |  |  |  |
| CNC(=O)C(Cc1ncc(C(F)(F)F)cc1Cl)NC(=O)c1ccc(-c2ccccc2)cc1 (stereo not shown) [compound 316, N-{1-methylcarbamoyl-2-[3-chloro-5-(trifluoromethyl)-2-pyridinyl]-ethyl}-4-phenylbenzamide] | zero effectiveness | poor effectiveness |  |  |
| CC1=C(C(=O)NCC(NC(=O)c2c(Cl)cccc2Cl)c2ncc(C(F)(F)F)cc2Cl)SCCO1 (stereo not shown) [Compound 46] |  |  | at least 50% |  |
| CNC(=O)C(Cc1ncc(C(F)(F)F)cc1Cl)NC(=O)c1ccc(OC)cc1 (stereo not shown) [compound 315, N-{1-methylcarbamoyl-2-[3-chloro-5-(trifluoromethyl)-2-pyridinyl]ethyl}-4-methoxybenzamide] | zero effectiveness |  |  |  |
| CCNC(=O)C(Cc1ncc(C(F)(F)F)cc1Cl)NC(=O)c1ccccc1Br (stereo not shown) [compound 310, N-{1-ethylcarbamoyl-2-[3-chloro-5-(trifluoromethyl)-2-pyridinyl]ethyl}-2-bromobenzamide] | zero effectiveness |  |  |  |
| CNC(=O)C(Cc1ncc(C(F)(F)F)cc1Cl)NC(=O)c1ccccc1 (stereo not shown) [compound 314, N-{1-methylcarbamoyl-2-[3-chloro-5-(trifluoromethyl)-2-pyridinyl]ethyl}-benzamide] | zero effectiveness |  |  |  |
| O=C(Cc1cccs1)NCc1ncc(C(F)(F)F)cc1Cl [compound 101, N-{[3-chloro-5-(trifluoromethyl)-2-pyridinyl]methyl}-5-thienylacetamide] | no efficacy | poor efficacy |  | no efficacy |
| CCNC(=O)C(Cc1ncc(C(F)(F)F)cc1Cl)NC(=O)c1cccc([N+](=O)[O-])c1 (stereo not shown) [compound 307, N-{1-ethylcarbamoyl-2-[3-chloro-5-(trifluoromethyl)-2-pyridinyl]ethyl}-3-nitrobenzamide] | zero effectiveness | poor effectiveness |  |  |
| CCNC(=O)C(Cc1ncc(C(F)(F)F)cc1Cl)NC(=O)c1ccccc1 (stereo not shown) [compound 304, N-{1-ethylcarbamoyl-2-[3-chloro-5-(trifluoromethyl)-2-pyridinyl]-ethyl}-benzamide] | zero effectiveness |  |  |  |
